Test results taken from ChEMBL document CHEMBL1201862, “PubChem BioAssay data set” (2004).
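Five concentrations, 48 hours, 96-well plates. Here, GI50 denotes the concentration required for 50% inhibition of growth.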 Active and inactive are the calls of the source. No stated cut-off is given here; in the data, active = GI50 up to about 1.1 µM and inactive = higher.

Tests used:
Experiment in all cases: NCI anticancer screen, dose series, 48 h
SK-MEL-28 = tested on: SK-MEL-28
MOLT-4 = tested on: MOLT-4
SNB-19 = tested on: SNB-19
SF-268 = tested on: SF-268
SK-MEL-2 = tested on: SK-MEL-2
NCI-H460 = tested on: NCI-H460
NCI-H522 = tested on: NCI-H522
OVCAR-5 = tested on: OVCAR-5
SNB-78 = tested on: SNB-78
TK-10 = tested on: TK-10
OVCAR-4 = tested on: OVCAR-4
KM-20L2 = tested on: KM-20L2
UO-31 = tested on: UO-31
U-251 = tested on: U-251
HT-29 = tested on: HT-29
M19-MEL = tested on: M19-MEL
CAKI-1 = tested on: CAKI-1
RPMI-8226 = tested on: RPMI-8226
XF498 = tested on: XF498
HCT-15 = tested on: HCT-15
UACC-257 = tested on: UACC-257
SR = tested on: SR
COLO 205 = tested on: COLO 205
A549 = tested on: A549
HCC 2998 = tested on: HCC 2998
LOX IMVI = tested on: LOX IMVI
SW-620 = tested on: SW-620
SN12C = tested on: SN12C
HL-60 = tested on: HL-60
IGROV-1 = tested on: IGROV-1
SK-OV-3 = tested on: SK-OV-3
SK-MEL-5 = tested on: SK-MEL-5
786-0 = tested on: 786-0
K562 = tested on: K562
EKVX = tested on: EKVX
SF-539 = tested on: SF-539
HOP-62 = tested on: HOP-62
KM12 = tested on: KM12
NCI-H226 = tested on: NCI-H226
OVCAR-3 = tested on: OVCAR-3
SF-295 = tested on: SF-295
Malme-3M = tested on: Malme-3M
HCT-116 = tested on: HCT-116
NCI-H23 = tested on: NCI-H23
UACC-62 = tested on: UACC-62
CCRF-CEM = tested on: CCRF-CEM
HOP-92 = tested on: HOP-92
ACHN = tested on: ACHN
OVCAR-8 = tested on: OVCAR-8
DMS-114 = tested on: DMS-114
LXFL 529 = tested on: LXFL 529
M14 = tested on: M14
SNB-75 = tested on: SNB-75
DLD-1 = tested on: DLD-1
A498 = tested on: A498
DMS-273 = tested on: DMS-273

CC(=O)NNc1nc(C)c(C(=O)NNC(=O)C(=O)Nc2ccc(Cl)c([N+](=O)[O-])c2)s1
GI50 (SK-MEL-28): > 100 µM (inactive) | GI50 (MOLT-4): 20 µM (inactive) | GI50 (SNB-19): > 100 µM (inactive) | GI50 (SF-268): 35.8 µM (inactive) | GI50 (SK-MEL-2): > 100 µM (inactive) | GI50 (NCI-H460): > 100 µM (inactive) | GI50 (NCI-H522): 26.2 µM (inactive) | GI50 (OVCAR-5): > 100 µM (inactive) | GI50 (SNB-78): 45.8 µM (inactive) | GI50 (TK-10): > 100 µM (inactive) | GI50 (OVCAR-4): 34.4 µM (inactive) | GI50 (KM-20L2): > 100 µM (inactive) | GI50 (UO-31): > 100 µM (inactive) | GI50 (U-251): 50.9 µM (inactive) | GI50 (HT-29): > 100 µM (inactive) | GI50 (M19-MEL): 67.8 µM (inactive) | GI50 (CAKI-1): > 100 µM (inactive) | GI50 (RPMI-8226): 43.7 µM (inactive) | GI50 (XF498): 42.6 µM (inactive) | GI50 (HCT-15): 49.3 µM | GI50 (UACC-257): 37.4 µM (inactive) | GI50 (SR): 35.1 µM (inactive) | GI50 (COLO 205): > 100 µM (inactive) | GI50 (A549): 85.5 µM (inactive) | GI50 (HCC 2998): 66.1 µM (inactive) | GI50 (LOX IMVI): 31.3 µM (inactive) | GI50 (SW-620): 32.2 µM (inactive) | GI50 (SN12C): 71.8 µM (inactive) | GI50 (HL-60): 39 µM (inactive) | GI50 (IGROV-1): > 100 µM (inactive) | GI50 (SK-OV-3): > 100 µM (inactive) | GI50 (SK-MEL-5): > 100 µM (inactive) | GI50 (786-0): 50 µM (inactive) | GI50 (K562): 26.2 µM (inactive) | GI50 (EKVX): > 100 µM (inactive) | GI50 (SF-539): 53 µM (inactive) | GI50 (HOP-62): > 100 µM (inactive) | GI50 (KM12): 88.9 µM (inactive) | GI50 (NCI-H226): > 100 µM (inactive) | GI50 (OVCAR-3): 30.4 µM (inactive) | GI50 (SF-295): 74.8 µM (inactive) | GI50 (Malme-3M): 71.4 µM (inactive) | GI50 (HCT-116): 85.3 µM (inactive) | GI50 (NCI-H23): 37.7 µM (inactive) | GI50 (UACC-62): 58.9 µM (inactive) | GI50 (CCRF-CEM): 21.9 µM (inactive) | GI50 (HOP-92): 43.3 µM (inactive) | GI50 (ACHN): 41.1 µM (inactive) | GI50 (OVCAR-8): 54.8 µM (inactive) | GI50 (DMS-114): 46.9 µM (inactive) | GI50 (LXFL 529): 27.2 µM (inactive) | GI50 (M14): > 100 µM (inactive)

CC(C)OC(=O)c1cccnc1/C=N/O
GI50 (MOLT-4): > 100 µM (inactive) | GI50 (SNB-19): > 100 µM (inactive) | GI50 (SNB-75): > 100 µM (inactive) | GI50 (SF-268): > 100 µM (inactive) | GI50 (SK-MEL-2): > 100 µM (inactive) | GI50 (NCI-H460): 84.1 µM (inactive) | GI50 (NCI-H522): > 100 µM (inactive) | GI50 (OVCAR-5): > 100 µM (inactive) | GI50 (SNB-78): > 100 µM (inactive) | GI50 (TK-10): > 100 µM (inactive) | GI50 (KM-20L2): > 100 µM (inactive) | GI50 (UO-31): > 100 µM (inactive) | GI50 (U-251): > 100 µM (inactive) | GI50 (HT-29): > 100 µM (inactive) | GI50 (M19-MEL): > 100 µM (inactive) | GI50 (CAKI-1): > 100 µM (inactive) | GI50 (RPMI-8226): > 100 µM (inactive) | GI50 (XF498): > 100 µM (inactive) | GI50 (HCT-15): > 100 µM | GI50 (UACC-257): > 100 µM (inactive) | GI50 (DLD-1): > 100 µM (inactive) | GI50 (COLO 205): > 100 µM (inactive) | GI50 (A549): > 100 µM (inactive) | GI50 (HCC 2998): > 100 µM (inactive) | GI50 (LOX IMVI): > 100 µM (inactive) | GI50 (SW-620): > 100 µM (inactive) | GI50 (SN12C): > 100 µM (inactive) | GI50 (HL-60): > 100 µM (inactive) | GI50 (IGROV-1): > 100 µM (inactive) | GI50 (SK-OV-3): > 100 µM (inactive) | GI50 (SK-MEL-5): > 100 µM (inactive) | GI50 (786-0): > 100 µM (inactive) | GI50 (K562): > 100 µM (inactive) | GI50 (EKVX): > 100 µM (inactive) | GI50 (A498): > 100 µM (inactive) | GI50 (SF-539): > 100 µM (inactive) | GI50 (HOP-62): > 100 µM (inactive) | GI50 (KM12): > 100 µM (inactive) | GI50 (DMS-273): > 100 µM (inactive) | GI50 (NCI-H226): > 100 µM (inactive) | GI50 (OVCAR-3): > 100 µM (inactive) | GI50 (SF-295): 88.5 µM (inactive) | GI50 (Malme-3M): > 100 µM (inactive) | GI50 (HCT-116): > 100 µM (inactive) | GI50 (NCI-H23): > 100 µM (inactive) | GI50 (UACC-62): > 100 µM (inactive) | GI50 (CCRF-CEM): > 100 µM (inactive) | GI50 (ACHN): > 100 µM (inactive) | GI50 (OVCAR-8): > 100 µM (inactive) | GI50 (DMS-114): > 100 µM (inactive) | GI50 (LXFL 529): > 100 µM (inactive) | GI50 (M14): > 100 µM (inactive)
